*1 amine or outer side, *2 acyl side, *3 side chain or, on linkers, in order; H or OH if unused. Where a SMILES comes first, the peptide text is derived from it. Bridges are numbered along the chain shown (N, C = ends). Roman numbers before positions name the chains, in order. [ ]: non-standard residue; d: D form. X1 = O=C([C@H](/C=C/c1ccccc1)N[*:1])[*:2]; Leu(4,5-dehydro) = C=C(C)C[C@H](N)C(=O)O; Phe(4-CN) = N#Cc1ccc(C[C@H](N)C(=O)O)cc1; Phe(3-Me) = Cc1cccc(C[C@H](N)C(=O)O)c1; Met(O2) = CS(=O)(=O)CC[C@H](N)C(=O)O; Ala(cPr) = N[C@@H](CC1CC1)C(=O)O; 2Pal = N[C@@H](Cc1ccccn1)C(=O)O; Met(O) = CS(=O)CC[C@H](N)C(=O)O; 2Thi = N[C@@H](Cc1cccs1)C(=O)O; Cha = N[C@@H](CC1CCCCC1)C(=O)O; Tle = CC(C)(C)[C@H](N)C(=O)O; Dab = NCC[C@H](N)C(=O)O; Nva = CCC[C@H](N)C(=O)O; Abu = CC[C@H](N)C(=O)O
Tests used:
[1] = system: Caco-2; test: Permeability from apical to basolateral side of human Caco-2 cell monolayers assessed as increase in lucifer yellow flux at 7.0 mM relative to untreated control; assay type: ADME, cell-based; details: caco-2, 7000 µM
[2] = system: Caco-2; test: Effect on integrity in human Caco-2 cell monolayers assessed as transepithelial resistance by epithelial voltohmmeter relative to control; assay type: ADME, cell-based; set-up: concentration or dose not given beside the values

Row | fold change (FC) [1] | Activity [2] [%] | Structure (SMILES)
1 | 103 | 20 | C=CC[C@H](NC(=O)[C@@H](N)Cc1ccccc1)C(=O)N[C@H](C(=O)NCC(=O)N[C@@H](CCCNC(=N)N)C(=O)N[C@@H](CC(C)C)C(=O)O)[C@@H](C)CC
2 | 52 | 11 | CC[C@H](C)[C@H](NC(=O)[C@H](CS)NC(=O)[C@@H](N)Cc1ccccc1)C(=O)NCC(=O)N[C@@H](CCCNC(=N)N)C(=O)N[C@@H](CC(C)C)C(=O)O (H-FCIGRL-OH)
3 | 1 | 102 | CC[C@H](C)[C@H](NC(=O)[C@H](Cc1cnc[nH]1)NC(=O)[C@@H](N)Cc1ccccc1)C(=O)NCC(=O)N[C@@H](CCCNC(=N)N)C(=O)N[C@@H](CC(C)C)C(=O)O (H-FHIGRL-OH)
4 | 1 | 121 | CC[C@H](C)[C@H](NC(=O)[C@H](CC(C)C)NC(=O)[C@@H](N)Cc1ccccc1)C(=O)NCC(=O)N[C@@H](CCCNC(=N)N)C(=O)N[C@@H](CC(C)C)C(=O)O (H-FLIGRL-OH)
5 | 2.1 | 94 | CC[C@H](C)[C@H](NC(=O)[C@H](CO)NC(=O)[C@@H](N)Cc1ccccc1)C(=O)NCC(=O)N[C@@H](CCCNC(=N)N)C(=O)N[C@@H](CC(C)C)C(=O)O (H-FSIGRL-OH)
6 | 0.6 | 118 | CC[C@H](C)[C@H](NC(=O)[C@H](Cc1ccc(O)cc1)NC(=O)[C@@H](N)Cc1ccccc1)C(=O)NCC(=O)N[C@@H](CCCNC(=N)N)C(=O)N[C@@H](CC(C)C)C(=O)O (H-FYIGRL-OH)
7 | 0.5 | 148 | CC[C@H](C)[C@H](NC(=O)[C@H](Cc1ccccn1)NC(=O)[C@@H](N)Cc1ccccc1)C(=O)NCC(=O)N[C@@H](CCCNC(=N)N)C(=O)N[C@@H](CC(C)C)C(=O)O (H-F[2Pal]IGRL-OH)
8 | 1.4 | 119 | CC[C@H](C)[C@H](NC(=O)[C@H](Cc1cccs1)NC(=O)[C@@H](N)Cc1ccccc1)C(=O)NCC(=O)N[C@@H](CCCNC(=N)N)C(=O)N[C@@H](CC(C)C)C(=O)O (H-F[2Thi]IGRL-OH)
9 | 1.1 | 96 | CC[C@H](NC(=O)[C@@H](N)Cc1ccccc1)C(=O)N[C@H](C(=O)NCC(=O)N[C@@H](CCCNC(=N)N)C(=O)N[C@@H](CC(C)C)C(=O)O)[C@@H](C)CC (H-F[Abu]IGRL-OH)
10 | 2.1 | 94 | CC[C@H](C)[C@H](NC(=O)[C@H](CCN)NC(=O)[C@@H](N)Cc1ccccc1)C(=O)NCC(=O)N[C@@H](CCCNC(=N)N)C(=O)N[C@@H](CC(C)C)C(=O)O (H-F[Dab]IGRL-OH)
11 | 1.9 | 115 | C=C(C)C[C@H](NC(=O)[C@@H](N)Cc1ccccc1)C(=O)N[C@H](C(=O)NCC(=O)N[C@@H](CCCNC(=N)N)C(=O)N[C@@H](CC(C)C)C(=O)O)[C@@H](C)CC (H-F[Leu(4,5-dehydro)]IGRL-OH)
12 | 1.6 | 98 | CCC[C@H](NC(=O)[C@@H](N)Cc1ccccc1)C(=O)N[C@H](C(=O)NCC(=O)N[C@@H](CCCNC(=N)N)C(=O)N[C@@H](CC(C)C)C(=O)O)[C@@H](C)CC (H-F[Nva]IGRL-OH)
13 | 0.6 | 101 | CC[C@H](C)[C@H](NC(=O)[C@H](Cc1cccc(C)c1)NC(=O)[C@@H](N)Cc1ccccc1)C(=O)NCC(=O)N[C@@H](CCCNC(=N)N)C(=O)N[C@@H](CC(C)C)C(=O)O (H-F[Phe(3-Me)]IGRL-OH)
14 | 0.3 | 118 | CC[C@H](C)[C@H](NC(=O)[C@H](Cc1ccc(C#N)cc1)NC(=O)[C@@H](N)Cc1ccccc1)C(=O)NCC(=O)N[C@@H](CCCNC(=N)N)C(=O)N[C@@H](CC(C)C)C(=O)O (H-F[Phe(4-CN)]IGRL-OH)

Continued, compound first:

Row | Structure (SMILES) | fold change (FC) [1] | Activity [2] [%]
15 | C=CC[C@@H](NC(=O)[C@@H](N)Cc1ccccc1)C(=O)N[C@H](C(=O)NCC(=O)N[C@@H](CCCNC(=N)N)C(=O)N[C@@H](CC(C)C)C(=O)O)[C@@H](C)CC | 0.8 | 130
16 | CC[C@H](C)[C@H](NC(=O)[C@H](CS)NC(=O)[C@@H](N)Cc1ccccc1)C(=O)NCC(=O)O (H-FCIG-OH) | 2.2 | 103
17 | CC[C@H](C)[C@H](NC(=O)[C@H](CS)NC(=O)[C@@H](N)Cc1ccccc1)C(=O)NCC(=O)N[C@@H](CCCNC(=N)N)C(=O)O (H-FCIGR-OH) | 31 | 21
18 | CC[C@H](C)[C@H](NC(=O)[C@H](CC(=O)O)NC(=O)[C@@H](N)Cc1ccccc1)C(=O)NCC(=O)N[C@@H](CCCNC(=N)N)C(=O)N[C@@H](CC(C)C)C(=O)O (H-FDIGRL-OH) | 0.7 | 148
19 | CC[C@H](C)[C@H](NC(=O)[C@H](CCC(=O)O)NC(=O)[C@@H](N)Cc1ccccc1)C(=O)NCC(=O)N[C@@H](CCCNC(=N)N)C(=O)N[C@@H](CC(C)C)C(=O)O (H-FEIGRL-OH) | 1.3 | 104
20 | CC[C@H](C)[C@H](NC(=O)[C@H](CCCCN)NC(=O)[C@@H](N)Cc1ccccc1)C(=O)NCC(=O)N[C@@H](CCCNC(=N)N)C(=O)N[C@@H](CC(C)C)C(=O)O (H-FKIGRL-OH) | 0.4 | 110
21 | CC[C@H](C)[C@H](NC(=O)[C@H](CC(N)=O)NC(=O)[C@@H](N)Cc1ccccc1)C(=O)NCC(=O)N[C@@H](CCCNC(=N)N)C(=O)N[C@@H](CC(C)C)C(=O)O (H-FNIGRL-OH) | 1.5 | 83
22 | CC[C@H](C)[C@H](NC(=O)[C@H](CCC(N)=O)NC(=O)[C@@H](N)Cc1ccccc1)C(=O)NCC(=O)N[C@@H](CCCNC(=N)N)C(=O)N[C@@H](CC(C)C)C(=O)O (H-FQIGRL-OH) | 1.5 | 112
23 | CC[C@H](C)[C@H](NC(=O)[C@H](CCCNC(=N)N)NC(=O)[C@@H](N)Cc1ccccc1)C(=O)NCC(=O)N[C@@H](CCCNC(=N)N)C(=O)N[C@@H](CC(C)C)C(=O)O (H-FRIGRL-OH) | 2.2 | 102
24 | CC[C@H](C)[C@H](NC(=O)[C@@H](NC(=O)[C@@H](N)Cc1ccccc1)[C@@H](C)O)C(=O)NCC(=O)N[C@@H](CCCNC(=N)N)C(=O)N[C@@H](CC(C)C)C(=O)O (H-FTIGRL-OH) | 3.9 | 66
25 | CC[C@H](C)[C@H](NC(=O)[C@@H](NC(=O)[C@@H](N)Cc1ccccc1)C(C)C)C(=O)NCC(=O)N[C@@H](CCCNC(=N)N)C(=O)N[C@@H](CC(C)C)C(=O)O (H-FVIGRL-OH) | 5.7 | 50
26 | CC[C@H](C)[C@H](NC(=O)[C@H](CC1CC1)NC(=O)[C@@H](N)Cc1ccccc1)C(=O)NCC(=O)N[C@@H](CCCNC(=N)N)C(=O)N[C@@H](CC(C)C)C(=O)O (H-F[Ala(cPr)]IGRL-OH) | 0.6 | 111
27 | CC[C@H](C)[C@H](NC(=O)[C@H](CC1CCCCC1)NC(=O)[C@@H](N)Cc1ccccc1)C(=O)NCC(=O)N[C@@H](CCCNC(=N)N)C(=O)N[C@@H](CC(C)C)C(=O)O (H-F[Cha]IGRL-OH) | 2.1 | 68
28 | CC[C@H](C)[C@H](NC(=O)[C@H](CCS(C)(=O)=O)NC(=O)[C@@H](N)Cc1ccccc1)C(=O)NCC(=O)N[C@@H](CCCNC(=N)N)C(=O)N[C@@H](CC(C)C)C(=O)O (H-F[Met(O2)]IGRL-OH) | 0.7 | 110
29 | CC[C@H](C)[C@H](NC(=O)[C@H](CC[S+](C)[O-])NC(=O)[C@@H](N)Cc1ccccc1)C(=O)NCC(=O)N[C@@H](CCCNC(=N)N)C(=O)N[C@@H](CC(C)C)C(=O)O (stereo partly specified) (H-F[Met(O)]IGRL-OH) | 1.1 | 106
30 | CC[C@H](C)[C@H](NC(=O)[C@@H](NC(=O)[C@@H](N)Cc1ccccc1)C(C)(C)C)C(=O)NCC(=O)N[C@@H](CCCNC(=N)N)C(=O)N[C@@H](CC(C)C)C(=O)O (H-F[Tle]IGRL-OH) | 6.7 | 35
31 | CC[C@H](C)[C@H](NC(=O)[C@H](/C=C/c1ccccc1)NC(=O)[C@@H](N)Cc1ccccc1)C(=O)NCC(=O)N[C@@H](CCCNC(=N)N)C(=O)N[C@@H](CC(C)C)C(=O)O (H-F[X1]IGRL-OH) | 1 | 113
32 | CC[C@H](C)[C@H](N)C(=O)NCC(=O)N[C@@H](CCCNC(=N)N)C(=O)N[C@@H](CC(C)C)C(=O)O (H-IGRL-OH) | 0.9 | 70
33 | CC[C@H](C)[C@H](NC(=O)[C@H](CSSC[C@H](NC(=O)[C@@H](N)Cc1ccccc1)C(=O)N[C@H](C(=O)NCC(=O)N[C@@H](CCCNC(=N)N)C(=O)N[C@@H](CC(C)C)C(=O)O)[C@@H](C)CC)NC(=O)[C@@H](N)Cc1ccccc1)C(=O)NCC(=O)N[C@@H](CCCNC(=N)N)C(=O)N[C@@H](CC(C)C)C(=O)O (I: H-FCIGRL-OH / II: H-FCIGRL-OH; disulfide I:2-II:2) | 0.7 | 137

— ChEMBL document CHEMBL1156586, “Structure-activity relationship studies of permeability modulating peptide AT-1002” (Bioorg Med Chem Lett, 2008)
